Laboratory results as given in patent publication US11603355B2, “Charged ion channel blockers and methods for use” (Nocion Therapeutics, Inc., priority 2019, dated 2023).

Key:
NaV1.7 [1] = molecular target: T1, NaV1.7 (Homo sapiens, UniProt Q15858); test: Manual patch clamp, external block of NaV1.7 current; format: cell-based; details: % inhibition at 10 μM test concentration, compound in external solution, HEK293 cells, read-out: Nav1.7 Extracellular Inhibition
T1 construct: expressed in transfected cells; host or cells: HEK293 (tetracycline-inducible)
T1 sequence (Q15858 whole entry): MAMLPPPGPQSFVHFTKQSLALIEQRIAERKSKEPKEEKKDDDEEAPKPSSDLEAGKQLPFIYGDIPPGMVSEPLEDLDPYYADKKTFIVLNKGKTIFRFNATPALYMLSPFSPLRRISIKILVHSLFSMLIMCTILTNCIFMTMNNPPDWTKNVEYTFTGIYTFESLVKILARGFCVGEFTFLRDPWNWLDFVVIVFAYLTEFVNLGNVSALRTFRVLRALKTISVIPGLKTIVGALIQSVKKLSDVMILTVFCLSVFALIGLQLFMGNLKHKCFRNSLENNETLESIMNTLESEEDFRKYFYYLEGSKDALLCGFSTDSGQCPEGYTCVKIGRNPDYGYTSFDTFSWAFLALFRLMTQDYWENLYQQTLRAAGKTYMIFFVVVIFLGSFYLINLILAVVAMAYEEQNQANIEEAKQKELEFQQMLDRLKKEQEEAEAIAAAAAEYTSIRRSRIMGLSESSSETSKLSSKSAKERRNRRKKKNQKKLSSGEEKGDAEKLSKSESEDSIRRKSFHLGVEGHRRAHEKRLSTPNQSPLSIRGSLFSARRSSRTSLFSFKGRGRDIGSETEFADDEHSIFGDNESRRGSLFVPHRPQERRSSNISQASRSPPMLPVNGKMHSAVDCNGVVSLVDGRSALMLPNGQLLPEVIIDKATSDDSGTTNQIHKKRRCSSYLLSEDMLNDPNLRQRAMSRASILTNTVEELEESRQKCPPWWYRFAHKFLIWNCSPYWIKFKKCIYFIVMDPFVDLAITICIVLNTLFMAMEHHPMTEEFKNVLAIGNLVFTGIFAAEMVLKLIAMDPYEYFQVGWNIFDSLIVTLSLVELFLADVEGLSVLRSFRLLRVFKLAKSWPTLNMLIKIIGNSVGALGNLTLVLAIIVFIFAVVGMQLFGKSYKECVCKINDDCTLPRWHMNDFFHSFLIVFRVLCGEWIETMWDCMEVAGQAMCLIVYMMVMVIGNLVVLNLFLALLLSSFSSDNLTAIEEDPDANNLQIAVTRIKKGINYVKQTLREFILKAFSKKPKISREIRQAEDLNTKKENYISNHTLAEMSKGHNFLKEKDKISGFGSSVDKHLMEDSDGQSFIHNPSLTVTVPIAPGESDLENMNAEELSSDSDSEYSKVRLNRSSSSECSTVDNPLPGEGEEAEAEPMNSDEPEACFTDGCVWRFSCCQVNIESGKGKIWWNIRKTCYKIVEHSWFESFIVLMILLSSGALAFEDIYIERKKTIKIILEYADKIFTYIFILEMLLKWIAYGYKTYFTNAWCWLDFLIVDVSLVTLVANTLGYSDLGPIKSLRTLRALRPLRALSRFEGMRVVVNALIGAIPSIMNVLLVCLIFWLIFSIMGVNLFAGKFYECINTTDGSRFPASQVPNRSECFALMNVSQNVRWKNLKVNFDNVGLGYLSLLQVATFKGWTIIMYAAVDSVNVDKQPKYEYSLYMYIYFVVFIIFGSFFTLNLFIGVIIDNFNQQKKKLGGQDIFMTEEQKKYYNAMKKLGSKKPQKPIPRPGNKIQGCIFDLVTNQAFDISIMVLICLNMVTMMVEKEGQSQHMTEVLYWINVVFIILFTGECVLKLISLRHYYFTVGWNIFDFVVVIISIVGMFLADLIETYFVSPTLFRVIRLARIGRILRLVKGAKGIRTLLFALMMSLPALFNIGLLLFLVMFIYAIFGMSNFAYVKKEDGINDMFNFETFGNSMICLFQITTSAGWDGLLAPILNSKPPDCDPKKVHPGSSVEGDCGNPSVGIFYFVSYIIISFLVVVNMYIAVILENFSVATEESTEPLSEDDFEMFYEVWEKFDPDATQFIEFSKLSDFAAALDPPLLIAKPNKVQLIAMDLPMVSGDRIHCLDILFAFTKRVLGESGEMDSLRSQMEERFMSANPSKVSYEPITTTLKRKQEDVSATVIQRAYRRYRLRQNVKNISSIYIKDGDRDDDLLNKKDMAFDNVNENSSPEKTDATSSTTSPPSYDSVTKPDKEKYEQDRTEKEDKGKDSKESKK
Experimental: (§1) Representative compounds of the invention were synthesized according to the described methods and tested for the ability to inhibit voltage-gated sodium channels.
(§2) NaV1.7 was expressed in HEK293 cells upon induction with tetracycline. Cells were cultured in DMEM containing 10% dialyzed Fetal Bovine Serum (VWR, Radnor, Pa.), 1% Glutamax (VWR, Radnor, Pa.), 1% Penicillin-Streptomycin (VWR, Radnor, Pa.), 100 mg/L Hygromycin (Thermo Fisher Scientific, Waltham, Mass. and 5 mg/L Blasticidin (Alfa Aesar, Haverhill, Mass.). Cells were grown and maintained at 37° C. in a humidified environment containing 10% CO2 in air. Cells were detached from the culture flask for passage and harvested using 0.05% Trypsin-EDTA (Thermo Fisher Scientific, Waltham, Mass.). To induce NaV1.7, cells were induced with tetracycline (0.1-1 μg/mL, IBI Scientific, Peosta, Iowa) the day before recording and plated onto 24-well plates. Cells were washed with DPBS (VWR, Radnor, Pa.), trypsinized and then triturated five times in 10 mL of growth media to break apart cell aggregates. For one 24-well plate, 2 mL of cell suspension was mixed with 23 mL of fresh growth media and 0.1-1 μg/mL tetracycline added. 1 ml of mixed media with cells was then added to each well of a 24-well plate, with a 12 mm coverslip already placed in the bottom of the well. Cells were then incubated in 37° C. and 10% CO2 overnight.
(§3) The intracellular solution contained the following (in mM) CsCl 135, NaCl 10, EGTA 10, HEPES 10, MgCl2 2, adjusted to pH 7.2 with CsOH. The external solution was a normal Ringer solution containing (in mM) NaCl 155, HEPES 10, glucose 10, KCl 3.5, CaCl2 1.5, MgCl2 1 adjusted to pH 7.4 with NaOH. CsCl is from Alfa Aesar, Haverhill, Mass. All other chemicals are from Sigma-Aldrich, St. Louis, Mo. In order to test the degree of internal block by test compounds the compounds were dissolved in internal solution at the indicated test concentration. […] In order to test the degree of external block by test compounds the compounds were dissolved in external solution at the indicated test concentration.
(§4) 18-24 hours after cells were induced with tetracycline, coverslips were placed into a chamber filled with Normal Ringer solution at room temperature and the chamber placed on a microscope. Pipettes were pulled from borosilicate glass on a P97 puller (Sutter Instrument, Novato, Calif.) and polished with a MF-830 Microforge (Narishige International USA, Inc., Amityville, N.Y.) to have a resistance of 1.5-2.5 MΩ when filled with CsCl internal solution at room temperature. Healthy cells (those that are round and translucent with no visible blemishes) were chosen for seal formation. A seal was formed between the pipette and the cell, and a brief pulse of suction was used to “break in” and establish the whole-cell configuration. The membrane potential was held at −100 mV before the voltage protocol began. Only cells with series resistance between 1.5-5 MΩ were retained for analysis. The voltage protocol was as follows: Cells were held at −100 mV for 12 ms followed by a hyperpolarizing step to −105 mV for 12 ms to monitor the leak. Cells were then stepped back to −100 mV for 40 ms. Cells were then depolarized to −20 mV for 10 ms and then returned to −100 mV for 26 ms.
Once the recording was started, the voltage protocol was run at 30 second intervals for 5 minutes to get a stable baseline. This is followed by 5 Hz stimulation of the same voltage protocol run until the end of experiment. […] The test compound is added for 5 minutes before washing out with normal Ringer's solution. Currents were recorded using PatchMaster software with Heka EPC10 (HEKA Electronics, Lambrecht, Germany). Only cells with inward current amplitudes at −20 mV between 400 pA and 4 nA were accepted. In addition, cells having leak currents greater than 10% of their current amplitudes were discarded. […]

NaV1.7 [2] = molecular target: T1, NaV1.7; test: Manual patch clamp, internal block of NaV1.7 current; format: cell-based; details: compound in internal solution, HEK293 cells, read-out: Nav1.7 Intracellular Inhibition; for inhibition at 3 µM: % inhibition at 3 μM test concentration; for inhibition at 10 µM: % inhibition at 10 μM test concentration
Experimental: as §1, §2, §3, §4
Once the recording was started, the voltage protocol was run at 30 second intervals for 5 minutes to get a stable baseline. This was followed by four 30-second periods of 5 Hz stimulation of the same voltage protocol separated by 1 minute of rest which was then followed by 0.33 Hz stimulation after the last train. Currents were recorded using PatchMaster software with Heka EPC10 (HEKA Electronics, Lambrecht, Germany). Only cells with inward current amplitudes at −20 mV between 400 pA and 4 nA were accepted. In addition, cells having leak currents greater than 10% of their current amplitudes were discarded. […]

[3] = PAMPA membrane permeability assay; format: in vitro ADME; details: permeability coefficient, pH 7.4 buffer, GIT lipid, 4 hours incubation
Method in brief: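 Passive diffusion across a GIT-lipid-painted artificial membrane at pH 7.4, with a 50 uM donor stock diluted from DMSO and a 4 h incubation. UV spectra of the donor, acceptor and reference plates were read, and the permeability coefficient was calculated from the AUCs, in 10^−6 cm/s.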

NaV1.7 [4] = molecular target: T1, NaV1.7; test: Automated patch clamp (Qube 384), internal block of NaV1.7; format: cell-based; details: IC50, compound in internal solution, HEK293 cells, read-out: Nav1.7 Intracellular Inhibition
Experimental: NaV1.7 was expressed in HEK293 cells upon induction with tetracycline. Cells were cultured in DMEM containing 10% dialyzed Fetal Bovine Serum (VWR, Radnor, Pa.), 1% Glutamax (VWR, Radnor, Pa.), 1% Penicillin-Streptomycin (VWR, Radnor, Pa.), 100 mg/L Hygromycin (Thermo Fisher Scientific, Waltham, Mass. and 5 mg/L Blasticidin (Alfa Aesar, Haverhill, Mass.). Cells were grown and maintained at 37° C. in a humidified environment containing 10% CO2 in air. Cells were detached from the culture flask for passage and harvested using 0.05% Trypsin-EDTA (Thermo Fisher Scientific, Waltham, Mass.). To induce NaV1.7, cells were induced with tetracycline (0.1-1 μg/mL, IBI Scientific, Peosta, Iowa) the day before recording.
Before experiments, cells were washed with DPBS (VWR, Radnor, Pa.), digested with Detachin (VWR Radnor, Pa.) and then triturated 10 times in CHO Serum-Free Media (VWR Radnor, Pa.) to resuspend the cells and to break apart cell aggregates. Cells were counted and the final concentration was set at 2-5 million cells per mL.
The intracellular solution contained the following: 140 mM CsF, 1 mM/5 mM EGTA/CsOH, 10 mM HEPES, 10 mM NaCl, adjusted to pH 7.3 with CsOH, and osmolality to 320 with OSM solution. The external solution contained the following: 145 mM NaCl, 4 mM KCl, 1 mM MgCl2, 2 mM CaCl2), 10 mM HEPES, 10 mM Glucose, adjusted to pH 7.4 with CsOH and osmolality to 305 with OSM solution. The OSM solution was a normal Ringer solution containing (in mM) NaCl 155, HEPES 10, sucrose, KCl 3.5, CaCl2) 1.5, MgCl2 1 adjusted to pH 7.4 with NaOH. All chemicals are from Sigma-Aldrich, St. Louis, Mo. In order to test the degree of internal block by test compounds, the compounds were dissolved in internal solution at the indicated test concentration. […] In order to test the degree of external block by test compounds the compounds were dissolved in external solution at the indicated test concentration.
Automated Patch Clamps were performed on Qube 384 (Sophion Bioscience, Woburn Mass.) with multihole Qchips at a temperature setting of 22 degrees. The whole cells configuration was formed with default Qube seal and break-in parameter. The membrane potential was held at −100 mV before the voltage protocol began. Two voltage protocols were followed.
Step 1: Cells were held at −100 mV with a depolarized pulse to −20 mV for 10 ms, the interval was set at 5 s. Currents were corrected by default leak subtraction from every pulse. The duration was set at 5 mins.
Step 2: Cells were held at −100 mV with a depolarized pulse to −20 mV for 10 ms. The frequency was 5 Hz. Currents were corrected by leak subtraction calculated before step 2. The duration was set at 4 mins.
After Step 2, the Qchip was removed from the recording chamber. The internal solution was changed with solutions containing test compounds. Qchips were held at −100 mV without pulsing after being replaced in the recording chamber. The total solution switching time was 8 minutes. After the internal solution exchange, Cells were recorded and step 2 for repeated for 10 minutes.
Data analysis was performed by Sophion Analyzer. Cells were filtered with minimum 50 MOhm seal resistance and minimum 5 nA starting current. The rundown of the currents was corrected with control cells (Non-Drug). The remaining was calculated by averaging last 3 points in the end of experiments. The base line was calculated as the average of last 3 points of Step 2.
IC50 curves were plotted with DR-plots/Hill function (a dose-response plot with a Hill fit).
Representative examples of the invention were tested for intracellular inhibition of NaV 1.7 in the automated patch clamp assay. Activity Range is reported as IC50: “++++” (<0.3 μM), “+++” (0.3-1 μM), “++” (1-3 μM) or “+” (3-10 μM).

Row | SMILES | inhibition at 10 µM (NaV1.7 [1]) [%] | inhibition at 3 µM (NaV1.7 [2]) [%] | inhibition at 10 µM (NaV1.7 [2]) [%] | PAMPA (10^−6 cm/s) [3] | IC50 (NaV1.7 [4]) [nM]
1 | Cc1cccc(C)c1NC(=O)C[N+]1(Cc2ccccc2)CCCCC1 [Compound 4A, 1-benzyl-1-(2-((2,6-dimethylphenyl)amino)-2-oxoethyl)piperidin-1-ium bromide] | < 40 | 70 to 90 | 70 to 95 |  | 
2 | Cc1cccc(C)c1NC(=O)C[N+]1(Cc2ccccc2)CCCCCC1.[Br-] [Compound 3A, 1-benzyl-1-(2-((2,6-dimethylphenyl)amino)-2-oxoethyl) azepan-1-ium bromide] | 40 to 70 | > 90 | > 95 | + (“+” (<0.1 10^−6 cm/s)) | 
3 | CCC(C(=O)Nc1c(C)cccc1C)[N+]1(Cc2ccccc2F)CCCCC1 (stereo not drawn) [Compound 9A] | < 40 | 70 to 90 | > 95 | + (“+” (<0.1 10^−6 cm/s)) | 
4 | CCc1cccc(C)c1NC(=O)C[N+]1(Cc2ccccc2)CCCCCC1 [Compound 70A] | 40 to 70 | > 90 |  |  | 300 to 1000
5 | CCC(C(=O)Nc1c(C)cccc1C)[N+]1(Cc2ccccc2)CCCCC1.[Br-] (stereo not drawn) [Compound 6A, 1-benzyl-1-(1-((2,6-dimethylphenyl)amino)-1-oxobutan-2-yl)piperidin-1-ium bromide] | < 40 | 70 to 90 | 70 to 95 | + (“+” (<0.1 10^−6 cm/s)) | 
